Key:
[1] = rats; injected 1 mg/kg; cited from earlier work
[2] = 65 mg three times a day; cited from earlier work
[3] = 300 mg/day for one year; cited from earlier work
[4] = test system: IMR90 cells; assay: Replicative life span of IMR90 cells (population doubling level)
[5] = test system: mitochondrial complex IV; assay: Level of mitochondrial complex IV in IMR90 cells (subunit II antibody, western blotting)
[6] = test system: IMR90 cells; assay: H2O2-induced senescence of methylene blue-treated IMR90 cells; format: cell-based, human; conditions: continuous 100 nM; 10 μM H2O2
Method: In another experiment, the effect of hydrogen peroxide (H2O2) on senescence of methylene blue-treated cells was tested. IMR90 cells were seeded at an initial density of 0.5×10^6/dish and grown for two weeks in the presence of methylene blue prior to H2O2 treatment. Thereafter, cells were harvested weekly, counted, and seeded with or without methylene blue and/or 10 μM H2O2. Cells that were treated with hydrogen peroxide without methylene blue treatment had accelerated senescence. The H2O2-induced senescence was prevented when these cells were continuously treated with 100 nM methylene blue.

Compound	brain oxidative metabolism [1]	memory retention [1]	management of chronic renal calculous disease [2]	depression compared with 15 mg/day placebo [3]	increase in PDL ([4]; IMR90 cells seeded in 5% oxygen)	delay of senescence ([4]; IMR90 cells seeded in air)	optimal concentration for delaying senescence ([4]; IMR90 cells seeded in air) [nM]	effect on complex IV ([5]; 1000 nM, IMR90 cells)	increase in level of complex IV above age-matched controls ([5]; IMR90 cells)	H2O2-induced senescence [6]	effect on senescence (replicative life span) ([4]; 100 nM, IMR90 cells)	effect on level of complex IV ([5]; IMR90 cells after treatment)
CN(C)c1ccc2nc3ccc(=[N+](C)C)cc-3sc2c1 [methylene blue]	improved	improved	useful	significantly less depressed	10-15	25-30 population doublings	10 to 100	caused removal of complex IV from the mitochondria	approximately 30%	prevented		
Nc1ccc2nc3ccc(N)cc3[s+]c2c1 [thionine]											effective	increase in complex IV
